Where a name gives a salt, the structure may show the parent alone. Values belong to the compound of their own block, whether it stands above or below them.
Tests used:
mice = assay: pole climbing avoidance test; type: in vivo; conditions: i.p., treated/untreated mice
Source text: The neuroleptic activity of the compounds of the invention was investigated by means of the "pole climbing avoidance test", as described by L. Cook et al. (Ann. N.Y. Acad. Sci. 66, 740, 1957) and subsequently modified by Maffii et al. (J. Pharm. Pharmac., 11, 129, 1959). As a representative example, the compound of example 38 scores as follows in the above test:
The symbols CR, CR2, and UR corresponds to the primary, secondary conditioned response and to the unconditioned response according to the above test.

α1 adrenoceptor = assay: displacement of ^3 H-prazosin specifically bound in rat brain homogenate (radioligand binding); conditions: ^3 H Prazosin binding, Ki calculated from IC50, read-out: K1 (nM) ^3 H Prazosin
Procedure: The compounds of the invention were tested […] for their ability to compete with labelled ligands of α1, α2 -adrenergic,and dopaminergic receptors. Said tests were made essentially following:
(b) the method described by P. Greengrass et al., European Journal of Pharmacology, Vol. 55, pp. 323-326, (1979), which uses the specific displacement of ^3 H-prazosin specifically bound in rat brain homogenate, for the identification of substances interacting with the so called "α1 "adrenoceptor;
The above mentioned methods are radioligand binding assays and are based on the knowledge that many natural or synthetic physiologically active substances such as neurotransmitters, hormones, and others, specifically link to cellular receptors, generally of proteic nature. They are generally obtained from a tissue or organ of a suitable test-animal after isolation and homogenization of said tissue or organ.
The homogenate is twice centrifugated to separate and partially purify the receptorial fraction (synaptosomes).
The labelled substances employed are known to specifically bind their receptors, so the drug-receptor dissociation constants obtained for each test compound under standard conditions are a measure of their actual binding affinities. The validation of the above methods in predicting a possible pharmacological activity was carried out comparing the in vitro binding constants of a number of […] agonist or antagonist of the adrenergic or dopaminergic system with their in vivo activities. The α1 -adrenergic activity is essentially correlated with a peripheral vasodilatation. The α2 -adrenergic activity is essentially correlated with a hypotensive action of central origin, and the dopaminergic activity is correlated with a neuroleptic action. IC50 values, defined as the drug concentration that cause 50% inhibition of the specific ^3 H ligant binding, are observed by incubating from 5 to 7 different dilutions of the tested compound in duplicate or triplicate. Ki, inhibition constant, values are calculated from the following formula: [formula] wherein IC50 is defined as above, C is the concentration of the ^3 H ligand, and KD is the dissociation constant of the ^3 H ligand-receptor complex.

renal hypertensive dogs = assay: lowering of blood pressure in renal hypertensive dogs; type: in vivo, dog
Procedure: In renal hypertensive dogs, preparated essentially according to H. Golblatt, J. Linch. and R. F. Manzal, J. Exp. Med. 59, 347 (1934), some of the compounds of the invention show a considerable lowering of the systolic blood pressure without affecting the heart rate to a great extent.
The test compounds are administered orally and the pressure is measured according to the method of H. Friebel, E. Vrenden, Arch. Exp. Phat. Pharmak. 232, 419 ([…]).
In the above test system the compound of example 100 determines a 20% drop of the blood pressure when administered 0.5 mg/kg p.o., the compound of example 106 determines a 22% drop when administered 1 mg/kg p.o., the compounds of Examples 134 and 135 determine a drop of 34% and 25%, respectively, when administered 5 mg/kg p.o., and the compound of example 107 determines a 43% drop of the blood pressure when administered 10 mg/kg p.o.

[1] = positive inotropic activity in conventional in vitro tests (isolated preparation)
[2] = system: spontaneously hypertensive rat; assay: lowering of arterial pressure in the spontaneously hypertensive rat; type: in vivo; conditions: p.o. 50 mg/kg
Procedure: Journal, Vol. 27, p. 282, (1963). The arterial pressure was evaluated according to H. Fribel, E. Vredom, described in Arch. Exp. Phat. Pharmak. Vol. 232, p. 416, (1958). […] This 15% threshold is generally considered predictive of significant antihypertensive activity.

Ki (α1 adrenoceptor): 6.35 nM
SMILES: CN1CCc2c(c(-c3ccc(F)cc3)nn2Cc2ccc(F)cc2)C1 [Example 134, 3-(4-fluorophenyl)-1-(4-fluorophenylmethyl)-5-methyl-4,5,6,7-tetrahydro-1H-pyrazolo/4,3-c/pyridine, hydrochloride]
drop of the blood pressure (renal hypertensive dogs; 5 mg/kg p.o.): 34%

Ki (α1 adrenoceptor): 23.6 nM
SMILES: Cc1ccc(Cn2nc(-c3ccc(F)cc3)c3c2CCNC3)cc1 [Example 107, 3-(4-fluorophenyl)-1-(4-methylphenylmethyl)-4,5,6,7-tetrahydro-1H-pyrazolo/4,3-c/pyridine, methanesulfonate]
drop of the blood pressure (renal hypertensive dogs; 10 mg/kg p.o.): 43%

Ki (α1 adrenoceptor): 47.2 nM
SMILES: Cc1ccc(Cn2nc(-c3ccc(F)cc3)c3c2CCN(C)C3)cc1 [Example 135, 3-(4-fluorophenyl)-1-(4-methylphenylmethyl)-5-methyl-4,5,6,7-tetrahydro-1H-pyrazolo/4,3-c/pyridine, methanesulfonate]
drop of the blood pressure (renal hypertensive dogs; 5 mg/kg p.o.): 25%

Second part, the compound before the results:

SMILES: CN1CCc2[nH]nc(-c3ccc(F)cc3)c2C1 [Example 38, 3-(4-fluorophenyl)-5-methyl-4,5,6,7-tetrahydro-1H-pyrazolo/4,3-c/pyridine]
CR2 (secondary conditioned response) (mice; 10 mg/kg): 9/10 | CR (primary conditioned response) (mice; 10 mg/kg): 3/10 | UR (unconditioned response) (mice; 10 mg/kg): 0/10 | CR2 (secondary conditioned response) (mice; 25 mg/kg): 10/10 | CR (primary conditioned response) (mice; 25 mg/kg): 8/10 | UR (unconditioned response) (mice; 25 mg/kg): 0/10

SMILES: CCn1nc(-c2cccs2)c2c1CCNC2 [Example 102, 1-ethyl-3-(2-thienyl)-4,5,6,7-tetrahydro-1H-pyrazolo/4,3-c/pyridine, methanesulfonate]
positive inotropic activity [1]: good positive inotropic activity | antagonism of the inotropic activity by propanolol (β-adrenergic effects) ([1]; propanolol): not antagonized by propanolol

SMILES: Fc1ccc(-c2nn(Cc3ccccc3)c3c2CNCC3)cc1 [Example 100, 3-(4-fluorophenyl)-1-phenylmethyl-4,5,6,7-tetrahydro-1H-pyrazolo/4,3-c/pyridine, hydrochloride]
Ki (α1 adrenoceptor): 14.7 nM | lowering of the pressure [2]: 30% | drop of the blood pressure (renal hypertensive dogs; 0.5 mg/kg p.o.): 20%

SMILES: Fc1ccc(Cn2nc(-c3ccc(F)cc3)c3c2CCNC3)cc1 [Example 106]
Ki (α1 adrenoceptor): 0.331 nM | drop of the blood pressure (renal hypertensive dogs; 1 mg/kg p.o.): 22%
